Results reported in patent publication US4409210A, “Antibiotic compound” (priority 1982, dated 1983).
*1 amine or outer side, *2 acyl side, *3 side chain or, on linkers, in order; H or OH if unused. Where a SMILES comes first, the peptide text is derived from it. Bridges are numbered along the chain shown (N, C = ends). [ ]: non-standard residue; d: D form. ξ: configuration not given here. X2 = CCCCCCCCCCCC(CC(=O)[*:1])O[*:2]; ξAsp(3ξ-OH) = NC(C(=O)O)C(O)C(=O)O; X1 = O=C(C1C(O)CCN1[*:1])[*:2]

Key:
Blood levels in mice = format: in vivo
Description: Blood levels in mice were determined following an intravenous or intramuscular administration of Bu-2517. Blood samples were collected from orbital sinuses and assayed by the paper disc-agar diffusion method using S. lutea PCI 1001 as the test organism. […] Bu-2517 was not absorbed when administered orally. T1 TABLE 7-Blood Levels in Mice? -Blood levels (mcg/ml)? -intravenous dose? intramuscular dose? -Time after? 10? 30? 10? 30? 100? -administration? mg/kg? mg/kg? mg/kg? mg/kg? mg/kg? -1 min 70 224 ? --? --? --? -5 41 162 ? --? --? --? -10 33 131 ? 11 22 --? -15 --? --? --? --? 45 -20 23 68 13 32 --? -30 18 73 14 48 45 -45 18 64 14 41 --? -1 hr 14 50 13 36 47 -1.5 7.9 32 11 35 --? -2 5.6 23 8.9 28 --? -3 3.1 14 5.3 18 55 -5 --? --? <2.0 ? 8.9 --? -7 --? --? --? 3.8 23 -10 --? --? --? --? 15 -24 --? --? --? --? <0.3 -Half life (hr.) 0.81 0.87 1.6 1.8 3.7 -AUC* (mcg.hr/ml) 39 163 ? 40 137 ? 460 ? -

[1] = system: aerobic gram-negative organisms; format: cell-based
staphylococci = assay: MIC summary, staphylococci; format: cell-based; details: against staphylococci

CCCCCCCCCCCC1CC(=O)N2CCCC2C(=O)NC(CO)C(=O)N2CCCC2C(=O)NC(CCCNC(=N)N)C(=O)NC(C(O)C(=O)O)C(=O)NC(CO)C(=O)N2CCC(O)C2C(=O)NC(C(O)C(=O)O)C(=O)O1 (stereo not shown) [Bu-2517] (PSPR[ξAsp(3ξ-OH)]S[X1][ξAsp(3ξ-OH)]; linker N-C via X2; configuration not given here)
blood level after 7 hours (Blood levels in mice; intramuscular administration of 30 mg/kg): measurable blood level was still observed
AUC* (mcg.hr/ml), area under curve (Blood levels in mice; intramuscular dose 10 mg/kg): 40 µg·h/mL
Half life (Blood levels in mice; intramuscular dose 10 mg/kg): 1.6 h
Blood levels (Blood levels in mice; intramuscular dose 10 mg/kg, 10 min): 11000 ng/mL
Blood levels (Blood levels in mice; intramuscular dose 10 mg/kg, 20 min): 13000 ng/mL
Blood levels (Blood levels in mice; intramuscular dose 10 mg/kg, 30 min): 14000 ng/mL
Blood levels (Blood levels in mice; intramuscular dose 10 mg/kg, 45 min): 14000 ng/mL
Blood levels (Blood levels in mice; intramuscular dose 10 mg/kg, 1 hr): 13000 ng/mL
Blood levels (Blood levels in mice; intramuscular dose 10 mg/kg, 1.5 hr): 11000 ng/mL
Blood levels (Blood levels in mice; intramuscular dose 10 mg/kg, 2 hr): 8900 ng/mL
Blood levels (Blood levels in mice; intramuscular dose 10 mg/kg, 3 hr): 5300 ng/mL
Blood levels (Blood levels in mice; intramuscular dose 10 mg/kg, 5 hr): < 2000 ng/mL
AUC* (mcg.hr/ml), area under curve (Blood levels in mice; intramuscular dose 30 mg/kg): 137 µg·h/mL
Half life (Blood levels in mice; intramuscular dose 30 mg/kg): 1.8 h
Blood levels (Blood levels in mice; intramuscular dose 30 mg/kg, 10 min): 22000 ng/mL
Blood levels (Blood levels in mice; intramuscular dose 30 mg/kg, 20 min): 32000 ng/mL
Blood levels (Blood levels in mice; intramuscular dose 30 mg/kg, 30 min): 48000 ng/mL
Blood levels (Blood levels in mice; intramuscular dose 30 mg/kg, 45 min): 41000 ng/mL
Blood levels (Blood levels in mice; intramuscular dose 30 mg/kg, 1 hr): 36000 ng/mL
Blood levels (Blood levels in mice; intramuscular dose 30 mg/kg, 1.5 hr): 35000 ng/mL
Blood levels (Blood levels in mice; intramuscular dose 30 mg/kg, 2 hr): 28000 ng/mL
Blood levels (Blood levels in mice; intramuscular dose 30 mg/kg, 3 hr): 18000 ng/mL
Blood levels (Blood levels in mice; intramuscular dose 30 mg/kg, 5 hr): 8900 ng/mL
Blood levels (Blood levels in mice; intramuscular dose 30 mg/kg, 7 hr): 3800 ng/mL
AUC* (mcg.hr/ml), area under curve (Blood levels in mice; intramuscular dose 100 mg/kg): 460 µg·h/mL
Half life (Blood levels in mice; intramuscular dose 100 mg/kg): 3.7 h
Blood levels (Blood levels in mice; intramuscular dose 100 mg/kg, 15 min): 45000 ng/mL
Blood levels (Blood levels in mice; intramuscular dose 100 mg/kg, 30 min): 45000 ng/mL
Blood levels (Blood levels in mice; intramuscular dose 100 mg/kg, 1 hr): 47000 ng/mL
Blood levels (Blood levels in mice; intramuscular dose 100 mg/kg, 3 hr): 55000 ng/mL
Blood levels (Blood levels in mice; intramuscular dose 100 mg/kg, 7 hr): 23000 ng/mL
Blood levels (Blood levels in mice; intramuscular dose 100 mg/kg, 10 hr): 15000 ng/mL
Blood levels (Blood levels in mice; intramuscular dose 100 mg/kg, 24 hr): < 300 ng/mL
AUC* (mcg.hr/ml), area under curve (Blood levels in mice; intravenous dose 10 mg/kg): 39 µg·h/mL
Half life (Blood levels in mice; intravenous dose 10 mg/kg): 0.81 h
Blood levels (Blood levels in mice; intravenous dose 10 mg/kg, 1 min after administration): 70000 ng/mL
Blood levels (Blood levels in mice; intravenous dose 10 mg/kg, 5 min): 41000 ng/mL
Blood levels (Blood levels in mice; intravenous dose 10 mg/kg, 10 min): 33000 ng/mL
Blood levels (Blood levels in mice; intravenous dose 10 mg/kg, 20 min): 23000 ng/mL
Blood levels (Blood levels in mice; intravenous dose 10 mg/kg, 30 min): 18000 ng/mL
Blood levels (Blood levels in mice; intravenous dose 10 mg/kg, 45 min): 18000 ng/mL
Blood levels (Blood levels in mice; intravenous dose 10 mg/kg, 1 hr): 14000 ng/mL
Blood levels (Blood levels in mice; intravenous dose 10 mg/kg, 1.5 hr): 7900 ng/mL
Blood levels (Blood levels in mice; intravenous dose 10 mg/kg, 2 hr): 5600 ng/mL
Blood levels (Blood levels in mice; intravenous dose 10 mg/kg, 3 hr): 3100 ng/mL
AUC* (mcg.hr/ml), area under curve (Blood levels in mice; intravenous dose 30 mg/kg): 163 µg·h/mL
Half life (Blood levels in mice; intravenous dose 30 mg/kg): 0.87 h
Blood levels (Blood levels in mice; intravenous dose 30 mg/kg, 1 min after administration): 224000 ng/mL
Blood levels (Blood levels in mice; intravenous dose 30 mg/kg, 5 min): 162000 ng/mL
Blood levels (Blood levels in mice; intravenous dose 30 mg/kg, 10 min): 131000 ng/mL
Blood levels (Blood levels in mice; intravenous dose 30 mg/kg, 20 min): 68000 ng/mL
Blood levels (Blood levels in mice; intravenous dose 30 mg/kg, 30 min): 73000 ng/mL
Blood levels (Blood levels in mice; intravenous dose 30 mg/kg, 45 min): 64000 ng/mL
Blood levels (Blood levels in mice; intravenous dose 30 mg/kg, 1 hr): 50000 ng/mL
Blood levels (Blood levels in mice; intravenous dose 30 mg/kg, 1.5 hr): 32000 ng/mL
Blood levels (Blood levels in mice; intravenous dose 30 mg/kg, 2 hr): 23000 ng/mL
Blood levels (Blood levels in mice; intravenous dose 30 mg/kg, 3 hr): 14000 ng/mL
absorption, parenterally (Blood levels in mice; intravenous or intramuscular administration): well absorbed
absorption when administered orally (Blood levels in mice; oral): not absorbed
activity against aerobic gram-negative organisms [1]: no activity
fold more active than amphomycin (staphylococci): 2-4 fold
